Assay results published in patent US9868697B2, “Phytosphingosine derivatives, and composition comprising same for preventing and treating inflammatory skin diseases, autoimmune diseases, and hyperkeratosis diseases” (THE CATHOLIC UNIVERSITY OF KOREA INDUSTRY—ACADEMIC …, priority 2011, dated 2018).
“Also recorded” adds a separate entry of the source.

Assays:
NF-κB [1] = assay: Phosphorylation of IκBα and NF-κB in TPA-stimulated skin keratinocytes, western blot; assay type: cell-based, human; details: for inhibitory effect on the NF-κB activation: overall conclusion of the NF-κB tests
Experimental: (§1) Herein, in order to verify the effect of novel synthetic YG-II-6 compounds and their lead compound, phytosphingosine, on phosphorylation and degradation of IκBα, which is a protein that inhibits the activity of NF-κB by forming a complex with NF-κB, skin keratinocytes were pre-treated with respective compounds for 1 hour and then stimulated with 400 nM TPA for 15 minutes and 30 minutes, respectively. In order to verify the phosphorylation of NF-κB and the expression level of NF-κB in the cytoplasm and nucleus, skin keratinocytes were stimulated for 15 minutes and 1 hour, respectively. The results were confirmed by western blot analysis. In addition, the nuclear translocation of NF-κB was confirmed through reaction with antibodies, fluorescent labeling, and direct observation by microscopy. In order to verify the activity of the respective compounds at the transcription stage, cells were transfected with plasmids labeled with NF-κB luciferase reporter, and the luciferase activity was measured by the luciferase assay. In addition, the phosphorylation of IκBα and NF-κB was measured in the PTA-stimulated mouse skin.

ERK1/2, p38, and JNK = assay: MAP kinase phosphorylation in TPA-stimulated skin keratinocytes, western blot; assay type: cell-based, human; details: 400 nM TPA for 15 minutes, FIG. 4
Experimental: In order to verify the effects of the respective compounds on MAP kinase, skin keratinocytes were treated with the respective compounds for 1 hour, and then stimulated with 400 nM TPA for 15 minutes. The level of phosphorylation was confirmed by western blot assay.

[2] = system: human-derived keratinocytes; assay: Cytotoxicity on human-derived keratinocytes, WST-1 reagent; assay type: cell-based; details: WST-1, FIG. 7A
Experimental: (§2) Therefore, in order to verify the degree of the cytotoxicity of the YG-II-6 compounds, their cytotoxicity on human-derived keratinocytes was confirmed by using the WST-1 reagent. In order to verify the effects of the compounds on the expression of proteins associated with apoptosis, the keratinocytes were treated with corresponding concentrations of the respective compound samples and stimulated with TPA for 24 hours, and the expression levels of proteins were confirmed by western blot assay. In addition, human-derived keratinocytes and primary culture skin keratinocytes were treated with the compounds, and after 24 hours, subjected to FITC staining and TUNEL assay, and the skin tissues isolated from TPA-induced mice was subjected to FITC staining

NF-κB [3] = assay: Nuclear translocation of NF-κB, immunostaining, TPA-stimulated skin keratinocytes; assay type: cell-based, human; details: TPA stimulation, FIG. 1B
Experimental: as §1

NF-κB [4] = assay: NF-κB luciferase reporter assay, TPA stimulation; assay type: cell-based, human; details: FIG. 1C
Experimental: as §1

mouse skin tissues = assay: Apoptosis in skin tissues of TPA-induced mice, FITC staining; assay type: in vivo; details: FIGS. 7C to 7E
Experimental: as §2

[5] = system: human-derived keratinocytes and primary culture skin keratinocytes; assay: Apoptosis in keratinocytes, FITC staining and TUNEL assay; assay type: cell-based; details: 24 hours, FIGS. 7C to 7E
Experimental: as §2

NF-κB luciferase activity increased by TPA stimulation (NF-κB [4]) | SMILES | inhibitory effect on the NF-κB activation (NF-κB [1]) | phosphorylation of ERK1/2, p38, and JNK (ERK1/2, p38, and JNK) | phosphorylation of IκBα and NF-κB increased by TPA stimulation (NF-κB [1]; skin keratinocytes, 1 hour pre-treatment, 400 nM TPA, FIG. 1A) | concentration at which cytotoxicity was shown [2] | nuclear translocation of NF-κB (NF-κB [3]) | apoptosis in the mouse skin tissues (mouse skin tissues) | apoptosis in the TPA-stimulated cells [5]
– | CCCCCCCCCCCCCC[C@@H](O)[C@@H](O)[C@H](CO)NC(=O)/C=C/C(=O)O [fYG-II-6, (E)-4-oxo-4-(((2S,3S,4R)-1,3,4-trihydroxyoctadecan-2-yl)amino)but-2-enoic acid] | relatively greater inhibitory effect than mYG-II-6 | – | – | – | – | – | –
inhibited the luciferase activity | CCCCCCCCCCCCCC[C@@H](O)[C@@H](O)[C@@H](N)CO [phytosphingosine] | inhibited the activation of NF-κB | relatively weaker inhibitory activity than the YG-II-6 compounds; also recorded: no or little inhibitory effect | inhibited the phosphorylation of IκBα and NF-κB | 5 to 10 µM | inhibited the nuclear translocation of NF-κB | induced apoptosis | induced apoptosis
